Laboratory results reported in patent US11865129B2, “Application of anemoside B4 in preparation of a drug for treatment or prevention of psoriasis” (GUANGXI XINHAI PHARMACEUTICAL TECHNOLOGY CO., LTD., priority 2021, dated 2024).

How the values were obtained:
[1] = Weights of mice, 5% imiquimod-induced psoriasis model (first animal group); assay type: in vivo, BALB/c male mice; details: for weights of the mice / weight loss of the mice caused by psoriasis: 12 days; for weights of the mice: compared with blank control group; for weight loss of the mice caused by psoriasis: compared with model control group
Description: (§1) A shaving area on the back of the mice in each group is 2.5 cm×3 cm, and the vellus is removed with mild depilatory cream. The mice of each group except the blank control group are modeled by administrating 62.5 mg 5% imiquimod cream on the shaving area until the skin is thickened and has erythema and silver scales for modeling completely. During the model establishment, 5% imiquimod cream is administrated once a day, and continuously administrated for 14 days. On the third day, the model establishment is continued and drugs are administered at the same time, wherein the mice in the AC intragastric administration group (8 mg/kg), the anemoside B4 intragastric (i.g.) administration group (5 mg/kg), the anemoside B4 intragastric administration group (10 mg/kg), and the anemoside B4 intragastric administration group (20 mg/kg) are administrated once a day, and continuously administrated for 12 days. […] The mice in the blank control group and the model control group are applied 62.5 mg Vaseline to the skin lesions once a day, and continuously applied for 12 days. The weight of the mice is recorded for counting the weight change of the mice.

[2] = system: 5% imiquimod-induced psoriatic lesions; test: Psoriatic lesions and PASI, 5% imiquimod-induced psoriasis model in mice (first animal group); assay type: in vivo, BALB/c male mice; details: for skin lesions of the mice: 12 days
Description: as §1

[3] = anemoside B4 groups, doses not specified
[4] = intragastric 5 mg/kg once a day
[5] = intragastric 10 mg/kg once a day
[6] = intragastric 20 mg/kg once a day

Q: For `C=C(C)[C@@H]1CC[C@]2(C(=O)O[C@@H]3O[C@H](CO[C@@H]4O[C@H](CO)[C@@H](O[C@@H]5O[C@@H](C)[C@H](O)[C@@H](O)[C@H]5O)[C@H](O)[C@H]4O)[C@@H](O)[C@H](O)[C@H]3O)CC[C@]3(C)[C@H](CC[C@@H]4[C@@]5(C)CC[C@H](O[C@@H]6OC[C@H](O)[C@H](O)[C@H]6O[C@@H]6O[C@@H](C)[C@H](O)[C@@H](O)[C@H]6O)[C@@](C)(CO)[C@@H]5CC[C@]43C)[C@H]12` [anemoside B4], which “reversal of weight loss caused by imiquimod, compared with the acitretin capsules (AC) intragastric administration group” value [1, 3] is on record?
A: better

Q: And the “weights of the mice” value [1, 4]?
A: significantly decreased

Q: And the “weight loss of the mice caused by psoriasis” value (shortened to “weight loss of the mice caused”) [1, 4]?
A: can be improved

Q: And the “weights of the mice” value [1, 5]?
A: significantly decreased

Q: And the “weight loss of the mice caused” value [1, 5]?
A: can be improved

Q: What about the “weights of the mice” value [1, 6] of the same compound?
A: significantly decreased

Q: What about the “weight loss of the mice caused” value [1, 6] of the same compound?
A: can be improved

Q: And the “improvement of the skin lesions, compared with the acitretin capsules (AC) intragastric administration group” value [2, 3]?
A: better

Q: And the “skin lesions of the mice” value [2, 4]?
A: significantly improved

Q: What about the “skin lesions of the mice” value [2, 5] of the same compound?
A: significantly improved

Q: What about the “skin lesions of the mice” value [2, 6] of the same compound?
A: significantly improved
